The NIST ThermoML archive (doi:10.1016/j.fluid.2010.06.007)
Numbers after ± are expanded uncertainties.

Details: 298.15 K; 101.33 kPa; Liquid; Vibrating tube method

Question: With `ClC(Cl)Cl` [trichloromethane] as the compound, how does the molar volume read?
Answer: Its molar volume is 8.071e-05 ± 4e-08 m3/mol.

Question: For `C1CCOC1` [tetrahydrofuran], which molar volume is on record?
Answer: The molar volume was 8.174e-05 ± 4e-08 m3/mol.

Question: With `C1CCCCC1` [cyclohexane] as the compound, how does the molar volume read?
Answer: The molar volume was 0.0001088 ± 5e-08 m3/mol.
